Source: patent US20070031507A1, “Bactericide for MRSA” (priority 2001, published 2007)

System: MRSA (methicillin resistant Staphylococcus aureus)
Experiment: Antibacterial test: survival ratio of MRSA versus cultivation time in medium
Format: cell-based
Conditions: physiological saline, dilution 10^-3, pH 12.7
Experimental: Antibacterial tests were then performed. The relation between the cultivation time (minute) of MRSA in a cultivation medium and the survival ratio (%) of the bacteria was measured in the test shown in Table 1. The cultivation media of MRSA were physiological saline ([…]), physiological saline containing the bactericide for MRSA of the invention ([…]) and physiological saline containing a reagent NaOH (medium 3). The degree of dilution of both the bactericide for MRSA and the reagent (NaOH) was 10^−3, and pH of both solutions was 12.7.

With `[Na+].[OH-]` [Medium 3, NaOH] the “survival ratio of the bacteria” value (cultivation time 0 minutes) was 100%, the “survival ratio of the bacteria” value (cultivation time 15 minutes) was “Measurement was impossible” and the “survival ratio of the bacteria” value (cultivation time 30 minutes) was 0.0057%.
